Laboratory results reported in US8143268B2, “Bicyclic pyrimidinones and uses thereof” (Avexa Limited, priority 2006, dated 2012).
Where two headings read alike, the source gives them in different places.

Experiments:
[1] = molecular target: T1, integrase (Human immunodeficiency virus type 1 group M subtype B, UniProt P04585); assay: HIV integrase 3′ processing/strand transfer assay (IC50); type: biochemical
T1 construct: Each reaction (40 ul) contains 30 nM substrate DNA ad 400 ng integrase
Description: A combined 3′-processing/strand transfer assay procedure similar to that published (Ovenden et al. Phytochemistry. 2004 December; 65(24):3255-9.) could be used. The assay could be adapted to a 96 well plate format. Briefly, 400 ng of […] is incubated with 30 nM substrate DNA, consisting of annealed U5 LTR sequence oligonucleotides tagged with Digoxigenin (DIG; 5′-[…]-DIG-3′ (SEQ ID NO: 1)) or biotin (5′-Bio-[…]-3′ (SEQ ID NO: 2)) so that each substrate has either a DIG or Bio tag on opposite strands. Reactions are carried out for 2 hrs at 37° C., products generated as a result of 3′ processing and strand transfer activity are bound to streptavidin plates and detected with using anti-DIG-alkaline phosphatase conjugate and p-nitro phenyl phosphate substrate.
The strand transfer specific assay is of similar format to that of the 3′ processing/strand transfer combined assay except that it uses a biotinylated substrate that represents a pre-processed LTR end (5′-Bio-[…]-3′ (SEQ ID NO: 3)).
Oligonucleotides 5′-biotin-[…]-3′ (SEQ ID NO: 3) and 5′-[…]-Dig-3′ (SEQ ID NO: 1) are annealed in 10 mM Tris-Cl pH8.0, 100 mM NaCl, 2 mM EDTA at a final concentration of 30 uM.
Each reaction (40 ul) contains 30 nM substrate DNA ad 400 ng integrase in a reaction buffer comprising 20 mM Tris-Cl pH7.5, 25 mM NaCl, 5 mM MnCl2, 5 mM MgCl2, 5 mM B-ME, 50 ug/mL BSA, 0.05% (v/v) Tween-20.
Compounds are added in DMSO at 1/10 final reaction volume.
Reactions are incubated at 37° C. for 2 hr followed by the addition of 60 ul adjustment buffer containing 33 mM Tris-Cl pH 7.5, 664 mM NaCl, 16.6 mM EDTA, 0.166 mg/mL sonicated salmon sperm DNA.
The samples are then transferred to Streptavidin coated plates and products of the enzyme reactions are allowed to bind for 1 hr at room temperature.
Plates are then washed with 3×5 min with 30 mM NaOH, 200 mM NaCl, 1 mM EDTA then 3×5 min with wash 2: 10 mM Tris-Cl pH8.0, 6 mM EDTA, 0.1 mg/mL nuclease free BSA.
Anti-digoxigenin-phosphatase Fab (Roche, 0.1 U/mL)), diluted 1/2000 in wash 2 buffer is then added to each well and plates incubated 1 hr at 37° C.
Plates are then washed 3 times with TBS— Tween-20 (0.1%) then twice with TBS and 100 ul substrate (1 mg/mL p-nitrophenylphosphate in 0.1M Tris, pH 9.8) is added and plates incubated until sufficient colour is developed.

[2] = Compound cytotoxicity (CC50); type: cell-based; conditions: wells without virus
Description: (§1) Cells are seeded into 96 well microtitre plates at 50,000 cells per 50 μl per well in RF-containing […] polybrene (RF-10/2). Compounds are prepared to 4× final concentration in RF-10/2, and 30 L added to cells. Virus (40 L in RF-10/2 containing 1600 pfu) is added to each well or 40 L RF-10/2 for negative controls and for assaying compound cytotoxicity. After 24 hrs, an additional 90 μL of media or media containing 1× compound is added to each well. At 4 days post infection, 100 μL of media is removed from each well and replaced with 100 μl of fresh media with or without compound. Forty eight hours later supernatants are harvested and levels of extracellular p24 determined. Supernatants are diluted 1 in 10,000 and p24 levels assayed using the Vironostika p24 assay kit. EC50 is calculated as the concentration required to inhibit HIV p24 production to 50% that of no drug controls.

[3] = system: HIV; assay: Inhibition of HIV replication (p24); type: cell-based; conditions: Human immunodeficiency virus 1; concentration inhibiting HIV p24 production to 50% of no drug controls
Description: as §1

[4] = molecular target: T2, HIV integrase enzyme (Q148K) (Human immunodeficiency virus type 1 group M subtype B, UniProt P04585, Q1295K); assay: Strand transfer assay, mutant (Q148K) HIV integrase; type: biochemical; conditions: FIG. 1
Description: A strand transfer assay procedure similar to that published (Ovenden et al. Phytochemistry. 2004 December; 65(24):3255-9.) is used. Briefly, 400 ng of the enzyme, wild type or drug resistant mutant, is mixed with the compound to be tested and incubated with 30 nM substrate DNA. The substrate DNA is designed to mimic HIV DNA termini that has undergone 3′ end processing, and consists of the annealed U5 LTR sequence oligonucleotides tagged with Digoxigenin (DIG; 5′-[…]-DIG-3′ (SEQ ID NO: 1)) or biotin (5′-Bio-[…]-3′ (SEQ ID NO: 3)) so that each substrate has either a DIG or Bio tag on opposite strands. Reactions are carried out for 1 hr at 37° C. Products generated as a result of strand transfer activity are bound to streptavidin plates and detected using anti-DIG-alkaline phosphatase conjugate and p-nitro phenyl phosphate substrate.
FIG. 1 represents as an example, strand transfer assay results from selected compounds against wild-type integrase and the integrase containing the Q148K mutation.
HIV integrase was mutated within a shuttle vector (pGEM) containing the majority of the HIV-I gag and pol sequence using site directed mutagenesis to generate integrase sequences that have been published as conferring resistance to published integrase inhibitors. These include, but are not limited to, mutations such as Q148K. […]

[5] = molecular target: T2, HIV integrase enzyme (Q148K); conditions: Q148K mutant enzyme; cited from earlier work
[6] = integrase assay, which of Example 28.1/28.2 not stated, read-out: IC50

Structure (SMILES) | IC50 [1, 6] | CC50 at 6 days [2] | EC50 [3] | IC50 [1] | also measured
Cc1ccc2nc(-c3noc(Cc4ccc(F)cc4)n3)c(O)c(=O)n2c1 | 1 to 1000 nM | – | – | – | –
Cc1ccc2nc(C(=O)NCc3ccc(F)cc3)c(O)c(=O)n2c1 [7-Me, CONHCH2 (4F-Ph), 3-Hydroxy-7-methyl-4-oxo-4H-pyrido[1,2-a]pyrimidine-2-carboxylic acid 4-fluoro-benzylamide] | – | > 1000 nM | 1 to 1000 nM | 1000 to 10000 nM | –
Cc1ccc2nc(-c3nnc(-c4ccccc4)o3)c(O)c(=O)n2c1 | > 1000 nM | – | – | – | –
O=C(NCc1ccc(F)cc1)c1nc2ccc(Br)cn2c(=O)c1O [7-Br, CONHCH2 (4F-Ph), 7-Bromo-3-hydroxy-4-oxo-4H-pyrido[1,2-a]pyrimidine-2-carboxylic acid 4-fluoro-benzylamide] | – | > 1000 nM | 1 to 1000 nM | 1000 to 10000 nM | –
Cc1ccc2nc(C(=O)NCc3ccc(Cl)c(Cl)c3)c(O)c(=O)n2c1 [7-Me, CONHCH2 (3,4-ClPh), 3-Hydroxy-7-methyl-4-oxo-4H-pyrido[1,2-a]pyrimidine-2-carboxylic acid 3,4-dichloro-benzylamide] | – | > 1000 nM | 1 to 1000 nM | 1 to 1000 nM | –
Cc1ccc2nc(-c3ncc(-c4ccc(F)cc4)o3)c(O)c(=O)n2c1 | > 1000 nM | – | – | – | –
Cc1ccc2nc(-c3ncc(Cc4ccc(F)cc4)o3)c(O)c(=O)n2c1 | 1 to 1000 nM | – | – | – | –
O=C(NCc1ccc(Cl)c(Cl)c1)c1nc2ccc(N3CCOCC3)cn2c(=O)c1O [Example 6.13, 3-Hydroxy-7-morpholin-4-yl-4-oxo-4H-pyrido[1,2-a]pyrimidine-2-carboxylic acid 3,4-dichloro-benzylamide] | – | – | – | – | activity against HIV integrase enzyme (Q148K) [4]: particularly high activity
Cc1nnc(C(=O)NC(C)(C)c2nc(C(=O)NCc3ccc(F)cc3)c(O)c(=O)n2C)o1 [Raltegravir] | – | – | – | – | resistance of Q148K HIV integrase to published integrase inhibitors [5]: resistant
Cc1ccc2nc(-c3nnc(Cc4ccc(F)cc4)s3)c(O)c(=O)n2c1 | 1 to 1000 nM | – | – | – | –
